# Experimental data as given in US20150051210A1, “Tyrosine Kinase Inhibitor Combinations and their Use” (Novartis AG, priority 2012, published 2015).
# B1: FGF7: Fibroblast Growth Factor 7 (activator of FGFR) (protein, UniProt P21781 32-194, looked up)
# Fibroblast growth factor 7: CNDMTPEQMATNVNCSSPERHTRSYDYMEGGDIRVRRLFCRTQWYLRIDKRGKVKGTQEMKNNYNIMEIRTVAVGIVAIKGVESEFYLAMNKEGKLYAKKECNEDCNFKELILENHYNTYASAKWTHNGGEMFVALNQKGIPVRGKKTKKEQKTAHFLPMAIT
# Key:
# Type in all cases: cell-based
# RT-112 cells = assay: RT-112 Dual Inhibition: reversal of rescue with selective inhibitors, CellTiter-Glo cell viability; settings: for activity on cell viability (reversal of rescue): RT-112, rhHGF or rhNRG-1 250 ng/ml, 96 h, BGJ398 100 nM, Cpd. A/Cpd. B 500 nM, Lapatinib 1.5 μM, FIG. 5, FIG. 6
# Description: RT-112 Secretome screen: The basic format was identical to the MKN-45 secretome screen with slight modifications. RT-112 cells were plated in EMEM+10% in white, tissue-culture treated 384-well plates at 1000 cells/20 μl/well and allowed to attach overnight. Supernatant from library-transfected HEK293T/17 cells was transferred as described above for the MKN-45 secretome screen. Purified proteins rhNRG1-31 and rhTGFα were added as positive controls, at a final concentration of 150 ng/ml. Following addition of supernatants and purified protein controls, BGJ398 diluted in DMEM was added at 10 μl/well for a final assay concentration of 100 nM. Cell viability was measured after 72 hours using CellTiter-Glo as described above. (FIG. 2)
# RT-112 Dual Inhibition: The format for the RT-112 dual inhibition experiment was similar to that described for MKN-45 with the following modifications. RT-112 cells were plated at 1000 cells/20 μl/well. Solutions of rhHGF and rhNRG-1 were added to achieve a final concentration of 250 ng/ml. Single and dual inhibition conditions were prepared as follows: BGJ398, Cpd. A, Cpd. B, Lapatinib, BGJ398 and Cpd. A, BGJ398 and Cpd. B, BGJ398 and Lapatinib. Final concentrations for each compound, whether single or combined, were as follows: 100nM for BGJ398, 500 nM for Cpd. A and Cpd. B, and 1.5 μM for Lapatinib. After 96 hours cell viability was measured by CellTiter-Glo as previously described. (FIG. 5, FIG. 6).
# [1] = tested on: phosphorylation of MET, FRS2, ERK, AKT in RT-112; assay: Western blots of protein phosphorylation in RT-112 cells
# Description: (§1) Western Blots (Figures not Shown) MKN-45 and RT-112 cells were treated in 6-well plates for 2 hours and 18 hours in the presence or absence of purified protein (rhFGF7, rhNRG1-31, or rhHGF), and/or inhibitor (Cpd. B, Cpd. A, BGJ398). Following wash with ice-cold PBS, cells were lysed with RIPA buffer (Thermo) containing phosphatase (Thermo) and proteinase (Roche) inhibitor cocktails. Total protein was quantified by bicinchoninic protein assay (Pierce). Aliquots of 20 μg were resolved by electrophoresis on NuPAGE SDS-PAGE 4-12% BIS-Tris gels before transfer to nitrocellulose membranes. Membranes were blocked for one hour at room temperature before overnight incubation at 4° C. with the following primary antibodies (source rabbit, 1:1000 final dilution): anti-phospho-Akt (Ser473), anti-phospho-MET (Tyr1234/1235), anti-phospho-MAPK/ERK(1/2) (Thr202/Tyr204), anti-AKT, anti-MAPK/Erk(1/2), and anti-α/β-Tubulin . Anti-MET was probed at 1:800 final dilution An internal antibody was used for phospho-FRS2(Y346) (1:1500 dilution). Membranes were then washed 3 times in PBS+0.1% Tween before addition of secondary antibody, IRDye 680LT goat anti-rabbit IgG , dilution 1:15000. After one hour at room temperature, membranes were washed and bands were visualized using an Odyssey Infrared Imager.
# MKN-45 cells = assay: MKN-45 Dual Inhibition: reversal of rescue with selective inhibitors, CellTiter-Glo cell viability; settings: for activity on cell viability (reversal of rescue): MET-dependent MKN-45, rhFGF7 or rhNRG-1 250 ng/ml, 96 h, Cpd. A/Cpd. B 100 nM, BGJ398 500 nM, Lapatinib 1.5 μM, FIG. 3, FIG. 4
# Description: MKN-45 Secretome screen: MKN-45 cells were plated in white, tissue-culture treated 384-well plates (Greiner) at 3000 cells/20 μl DMEM +10% FBS/well and allowed to attach overnight. Supernatant from library-transfected HEK293T/17 cells was then transferred to the MKN-45 cells at 30 μl/well using a Biomek FX liquid handler (Beckman Coulter) with pipetting speeds reduced to minimize disturbance of the HEK293T/17 monolayer. As positive controls, the purified proteins rhEGF and rhNRG1-31 (R&D Systems) were added to isolated wells on each plate for a final concentration of 150 ng/ml; supernatant from mock-transfected HEK293T/17 wells were transferred as neutral controls. Following addition of supernatants and purified protein controls, Cpd. A diluted in DMEM was added at 10 μl/well for a final assay concentration of 100 nM. After 96 hours incubation, growth was measured using the CellTiter-Glo luminescent cell viability assay system (Promega). In brief, 30 μl CellTiter-Glo reagent was added to all wells, then incubated for 15 minutes at room temperature before reading luminescence on a Viewlux plate reader (Perkin Elmer). (FIG. 1)
# MKN-45 Dual Inhibition: MKN-45 cells were seeded at 3000 cells/20 μl/well in 384-well plates and incubated overnight. Solutions of rhFGF7 and rhNRG-1 were prepared in DMEM+10%FBS, then added at 30 μl/well to achieve a final concentration of 250 ng/ml (one purified protein per treatment). The following single and dual inhibition treatments were prepared in DMEM and added at […]: Cpd. A, Cpd. B, BGJ398, Lapatinib, Cpd. A and BGJ398, Cpd. B and BGJ398, Cpd. A and Lapatinib, Cpd. B and Lapatinib. Final concentrations for each compound, whether single or combined, were as follows: 100 nM for Cpd. A and Cpd. B, 500 nM for BGJ398 and 1.5 μM for Lapatinib. After 96 hours cell viability was measured by CellTiter-Glo as previously described. (FIG. 3, FIG. 4)
# [2] = tested on: phosphorylation of MET, ERK1/2, AKT, FRS2 in MKN-45; assay: Western blots of protein phosphorylation in MKN-45 cells
# Description: as §1
molecule,measurement,setting,value
"C/C(=N\NC(N)=O)c1ccc2ncc(Cc3cc4cccnc4cc3F)n2n1 [Cpd. A, (E)-2-(1-(3-((7-fluoroquinolin-6-yl)methyl)imidazo[1,2-b]pyridazin-6-yl)ethylidene)hydrazinecarboxamide]",activity on cell viability (reversal of rescue),RT-112 cells,not sufficient
same,prevention of HGF rescue of ERK phosphorylation,"[1]; RT-112, BGJ398 plus HGF, simultaneous addition",prevented this rescue effect
same,MET phosphorylation,"[1]; RT-112, absence of ligands",specifically inhibited MET phosphorylation
same,activity on cell viability (reversal of rescue),MKN-45 cells,active
same,"effect on phosphorylation of several proteins (MET, ERK1/2, AKT, FRS2)","[2]; MKN-45, absence of added ligands",profound effect
"CS(=O)(=O)CCNCc1ccc(-c2ccc3ncnc(Nc4ccc(OCc5cccc(F)c5)c(Cl)c4)c3c2)o1 [lapatinib, reference compound]",activity on cell viability (reversal of rescue),RT-112 cells,not sufficient
same,sensitivity of NRG1-caused restoration of ERK phosphorylation to inhibitor,[1]; RT-112,lapatinib-sensitive
same,activity on cell viability (reversal of rescue),MKN-45 cells,not sufficient
same,reversal of ligand-mediated rescue of proliferation,"MKN-45 cells; MKN-45 in presence of MET inhibitor Cpd. A or Cpd. B, FIGS. 3, 4",reversed rescue by NRG1
same,reversal of FGF7 rescue effect on FRS2 and ERK1/2 phosphorylation,"[2]; MKN-45, MET inhibitor plus FGF7",not
same,sensitivity of NRG1-evoked phosphorylation re-activation to inhibitor,"[2]; MKN-45, MET inhibitor plus NRG1",specifically sensitive
HGF: Hepatocyte Growth Factor,rescue of cell proliferation by recombinant ligand,RT-112 cells; RT-112 in presence of FGFR inhibitor,reproduce the rescue effects
same,ERK phosphorylation after addition of ligand,"[1]; RT-112, in the presence of BGJ398",restored ERK phosphorylation
B1,AKT phosphorylation after addition of ligand,"[2]; MKN-45, MET inhibited",no or minimal effect on AKT phosphorylation
same,ERK1/2 phosphorylation after addition of ligand,"[2]; MKN-45, MET inhibited",partially re-activated ERK1/2 phosphorylation
same,FRS2 phosphorylation after addition of ligand,"[2]; MKN-45, MET inhibited",re-activated FRS2 phosphorylation
